From the supplement of paper PMC10307832

Legend:
Experiment in all cases: relative viability (nuclei count vs DMSO), 5 days (fraction); higher = more cells survive
[1] = system: SW 1573
Procedure, shortened: (§1)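 Dosing by pin tool came one day after lung cancer cell lines were seeded in 1536-well plates, using either one drug or a fixed anchor-drug dose plus five library-drug doses (not always all listed) in √10 steps. After 5 days, nuclei were counted on 4× images. Relative viability is treated-well nuclei count divided by vehicle-well nuclei count, and values are medians of duplicate plates.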

[2] = system: NCI-H1793
Procedure, shortened: as §1

[3] = system: 201T
Procedure, shortened: as §1

[4] = system: NCI-H358
Procedure, shortened: as §1

[5] = system: NCI-H596
Procedure, shortened: as §1

[6] = system: EPLC-272H
Procedure, shortened: as §1

[7] = system: NCI-H2087
Procedure, shortened: as §1

[8] = system: COR-L23
Procedure, shortened: as §1

[9] = system: NCI-H460
Procedure, shortened: as §1

[10] = system: HCC-827
Procedure, shortened: as §1

[11] = system: LK-2
Procedure, shortened: as §1

[12] = system: BEN
Procedure, shortened: as §1

[13] = system: NCI-H1651
Procedure, shortened: as §1

[14] = system: EMC-BAC-2
Procedure, shortened: as §1

[15] = system: HCC-44
Procedure, shortened: as §1

[16] = system: NCI-H1915
Procedure, shortened: as §1

[17] = system: NCI-H2126
Procedure, shortened: as §1

[18] = system: NCI-H2347
Procedure, shortened: as §1

[19] = system: LXF-289
Procedure, shortened: as §1

[20] = system: NCI-H1650
Procedure, shortened: as §1

[21] = system: A-427
Procedure, shortened: as §1

[22] = system: EKVX
Procedure, shortened: as §1

O=c1[nH]c2ccccc2n1C1CCN(CCCC(c2ccc(F)cc2)c2ccc(F)cc2)CC1 [Pimozide] + CS(=O)(=O)CCNCc1ccc(-c2ccc3ncnc(Nc4ccc(OCc5cccc(F)c5)c(Cl)c4)c3c2)o1 [Lapatinib] (partner 2 µM)
relative viability ([1]; first compound 0.08 µM): 1.11
relative viability ([1]; first compound 0.253 µM): 1.12
relative viability ([1]; first compound 0.8 µM): 1.12
relative viability ([1]; first compound 2.53 µM): 1.16
relative viability ([1]; first compound 8 µM): 1.11
relative viability ([2]; first compound 0.08 µM): 0.785
relative viability ([2]; first compound 0.253 µM): 0.641
relative viability ([2]; first compound 0.8 µM): 0.593
relative viability ([2]; first compound 2.53 µM): 0.481
relative viability ([2]; first compound 8 µM): 0.654
relative viability ([3]; first compound 0.08 µM): 1.01
relative viability ([3]; first compound 0.253 µM): 1.05
relative viability ([3]; first compound 0.8 µM): 1.01
relative viability ([3]; first compound 2.53 µM): 0.995
relative viability ([3]; first compound 8 µM): 0.926
relative viability ([4]; first compound 0.08 µM): 0.506
relative viability ([4]; first compound 0.253 µM): 0.488
relative viability ([4]; first compound 0.8 µM): 0.433
relative viability ([4]; first compound 2.53 µM): 0.477
relative viability ([4]; first compound 8 µM): 0.4
relative viability ([5]; first compound 0.08 µM): 1
relative viability ([5]; first compound 0.253 µM): 1.15
relative viability ([5]; first compound 0.8 µM): 1.16
relative viability ([5]; first compound 2.53 µM): 1.01
relative viability ([5]; first compound 8 µM): 0.87
relative viability ([6]; first compound 0.08 µM): 0.819
relative viability ([6]; first compound 0.253 µM): 0.945
relative viability ([6]; first compound 0.8 µM): 0.716
relative viability ([6]; first compound 2.53 µM): 0.809
relative viability ([6]; first compound 8 µM): 0.689
relative viability ([7]; first compound 0.08 µM): 0.999
relative viability ([7]; first compound 0.253 µM): 1.1
relative viability ([7]; first compound 0.8 µM): 0.825
relative viability ([7]; first compound 2.53 µM): 1.06
relative viability ([7]; first compound 8 µM): 0.847
relative viability ([8]; first compound 0.08 µM): 0.99
relative viability ([8]; first compound 0.253 µM): 0.856
relative viability ([8]; first compound 0.8 µM): 0.881
relative viability ([8]; first compound 2.53 µM): 0.914
relative viability ([8]; first compound 8 µM): 0.862
relative viability ([9]; first compound 0.08 µM): 1.06
relative viability ([9]; first compound 0.253 µM): 0.859
relative viability ([9]; first compound 0.8 µM): 0.949
relative viability ([9]; first compound 2.53 µM): 0.856
relative viability ([9]; first compound 8 µM): 0.826
relative viability ([10]; first compound 0.253 µM): 0.205
relative viability ([10]; first compound 0.8 µM): 0.189
relative viability ([10]; first compound 2.53 µM): 0.179
relative viability ([10]; first compound 8 µM): 0.194
relative viability ([11]; first compound 0.08 µM): 0.851
relative viability ([11]; first compound 0.253 µM): 0.842
relative viability ([11]; first compound 0.8 µM): 0.731
relative viability ([11]; first compound 2.53 µM): 0.78
relative viability ([11]; first compound 8 µM): 1.13
relative viability ([12]; first compound 0.08 µM): 0.615
relative viability ([12]; first compound 0.253 µM): 0.854
relative viability ([12]; first compound 0.8 µM): 0.73
relative viability ([12]; first compound 2.53 µM): 0.669
relative viability ([12]; first compound 8 µM): 0.728
relative viability ([13]; first compound 0.08 µM): 0.967
relative viability ([13]; first compound 0.253 µM): 0.734
relative viability ([13]; first compound 0.8 µM): 0.934
relative viability ([13]; first compound 2.53 µM): 0.809
relative viability ([13]; first compound 8 µM): 0.746
relative viability ([14]; first compound 0.08 µM): 0.865
relative viability ([14]; first compound 0.253 µM): 0.832
relative viability ([14]; first compound 0.8 µM): 0.843
relative viability ([14]; first compound 2.53 µM): 0.885
relative viability ([14]; first compound 8 µM): 0.868
relative viability ([15]; first compound 0.08 µM): 0.952
relative viability ([15]; first compound 0.253 µM): 1.08
relative viability ([15]; first compound 0.8 µM): 0.975
relative viability ([15]; first compound 2.53 µM): 0.96
relative viability ([15]; first compound 8 µM): 0.888
relative viability ([16]; first compound 0.08 µM): 1.03
relative viability ([16]; first compound 0.253 µM): 0.927
relative viability ([16]; first compound 0.8 µM): 0.585
relative viability ([16]; first compound 2.53 µM): 0.947
relative viability ([16]; first compound 8 µM): 0.926
relative viability ([17]; first compound 0.08 µM): 0.743
relative viability ([17]; first compound 0.253 µM): 0.675
relative viability ([17]; first compound 0.8 µM): 0.708
relative viability ([17]; first compound 2.53 µM): 0.724
relative viability ([17]; first compound 8 µM): 0.766
relative viability ([18]; first compound 0.08 µM): 0.834
relative viability ([18]; first compound 0.253 µM): 0.92
relative viability ([18]; first compound 0.8 µM): 0.771
relative viability ([18]; first compound 2.53 µM): 0.926
relative viability ([18]; first compound 8 µM): 0.978
relative viability ([19]; first compound 0.08 µM): 0.863
relative viability ([19]; first compound 0.253 µM): 0.937
relative viability ([19]; first compound 0.8 µM): 0.882
relative viability ([19]; first compound 2.53 µM): 0.87
relative viability ([19]; first compound 8 µM): 0.829
relative viability ([20]; first compound 0.08 µM): 0.711
relative viability ([20]; first compound 0.253 µM): 0.809
relative viability ([20]; first compound 0.8 µM): 0.451
relative viability ([20]; first compound 2.53 µM): 0.733
relative viability ([20]; first compound 8 µM): 0.146
relative viability ([21]; first compound 0.08 µM): 0.941
relative viability ([21]; first compound 0.253 µM): 1.03
relative viability ([21]; first compound 0.8 µM): 1.01
relative viability ([21]; first compound 2.53 µM): 0.911
relative viability ([21]; first compound 8 µM): 0.985
relative viability ([22]; first compound 0.253 µM): 0.177
relative viability ([22]; first compound 0.8 µM): 0.221
relative viability ([22]; first compound 2.53 µM): 0.216
relative viability ([22]; first compound 8 µM): 0.464
